Paper PMC3265452 (PLoS Neglected Tropical Diseases, 2012)
Counter-ions that a name gives are not always drawn.

Target: AaDOP2 (Aedes aegypti, UniProt H6D5H2)
Experiment: AaDOP2 antagonist screen of the LOPAC1280 library (HEK-CRELuc-Aadop2 cells, luminescence)
Type: cell-based
Details: not given

Chain of AaDOP2 (H6D5H2 1-476): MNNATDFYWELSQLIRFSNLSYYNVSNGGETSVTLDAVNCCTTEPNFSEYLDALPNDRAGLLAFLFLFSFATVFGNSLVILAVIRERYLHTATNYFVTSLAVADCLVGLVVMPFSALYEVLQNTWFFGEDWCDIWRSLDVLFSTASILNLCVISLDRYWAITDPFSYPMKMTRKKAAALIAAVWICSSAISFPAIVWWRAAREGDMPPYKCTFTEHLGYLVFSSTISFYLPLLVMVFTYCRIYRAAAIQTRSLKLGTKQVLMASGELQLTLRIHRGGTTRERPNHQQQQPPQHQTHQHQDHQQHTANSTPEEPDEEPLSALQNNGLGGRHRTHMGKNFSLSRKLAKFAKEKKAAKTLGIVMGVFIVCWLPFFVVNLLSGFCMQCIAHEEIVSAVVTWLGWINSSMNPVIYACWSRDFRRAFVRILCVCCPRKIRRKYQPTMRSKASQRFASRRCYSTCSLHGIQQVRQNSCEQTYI

Compound	Compound effect (percent receptor signaling in presence of test compound, relative lux units relative to the SCH23390 control)
COc1cc2nc(N3CCN(C(=O)C4CCCO4)CC3)nc(N)c2cc1OC (centres unmarked) [Compound 1178, Terazosin hydrochloride]	107
N#C/C(=C\c1ccc(O)c(O)c1)C(=O)NCCCNC(=O)/C(C#N)=C/c1ccc(O)c(O)c1 [Compound 1179, Tyrphostin AG 537]	112
N#C/C(=C\c1ccc(O)c(O)c1)C(=O)NCCCc1ccccc1 [Compound 1180, Tyrphostin AG 555]	77
N#C/C(=C\c1ccc(O)c(O)c1)C(=O)NCCc1ccccc1 [Compound 1181, Tyrphostin AG 698]	82
N#C/C(=C\c1c[nH]c2ccccc12)C(=O)c1ccc(O)c(O)c1 [Compound 1182, Tyrphostin AG 808]	101
CC(C)(C)NCC(O)c1ccccc1Cl (centres unmarked) [Compound 1187, Tulobuterol hydrochloride]	104
O=c1n(CCCN2CCN(c3cccc(Cl)c3)CC2)nc2ccccn12 [Compound 1188, Trazodone hydrochloride]	97
COc1cc(C=C(C#N)C#N)cc(O)c1O [Compound 1189, Tyrphostin AG 34]	74
C[C@]12C=CC(=O)C=C1CC[C@H]1[C@@H]3C[C@@H](O)[C@](O)(C(=O)CO)[C@@]3(C)C[C@H](O)[C@@]12F [Compound 1190, Triamcinolone]	108
CC(COc1ccc(/C=C/c2ccccc2)cc1)[N+](C)(C)C.[I-] (stereo not drawn) [Compound 1192, N,N,N-trimethyl-1-(4-trans-stilbenoxy)-2-propylammonium iodide]	79
N#CC(C#N)=C(N)/C(C#N)=C/c1ccc(O)cc1 [Compound 1194, Tyrphostin AG 112]	118
N#CC(C#N)=Cc1ccc(O)c(O)c1 [Compound 1196, Tyrphostin 23]	79
Cc1ccc(S(=O)(=O)N[C@@H](CCCCN)C(=O)CCl)cc1.Cl [Compound 1198, Na-p-Tosyl-L-lysine chloromethyl ketone hydrochloride]	100
N#CC(C#N)=Cc1cc(O)c(O)c(O)c1 [Compound 1199, Tyrphostin 25]	113
FC(F)(F)c1ccccc1-n1ccnc1 [Compound 1200, 1-[2-(Trifluoromethyl)phenyl]imidazole]	86
CC(=O)O[C@H]1C(=O)[C@@]2(C)[C@H]([C@H](OC(=O)c3ccccc3)[C@]3(O)C[C@H](OC(=O)[C@H](O)[C@@H](NC(=O)c4ccccc4)c4ccccc4)C(C)=C1C3(C)C)[C@]1(OC(C)=O)CO[C@@H]1C[C@@H]2O [Compound 1201, Taxol]	84
CCCCNc1ccc(C(=O)OCCN(C)C)cc1 [Compound 1202, Tetracaine hydrochloride]	78
N#C/C(=C\c1ccc(O)c(O)c1)C(N)=S [Compound 1203, Tyrphostin 47]	61
N#CC(C#N)=C(N)/C(C#N)=C/c1cc(O)c(O)c(O)c1 [Compound 1204, Tyrphostin 51]	122

Same assay, conditions: 10 µM compound, 300 nM dopamine, 2 hr; hit = compound effect <20

Compound	Compound effect (percent receptor signaling in presence of test compound, relative lux units relative to the SCH23390 control)
Cc1ccc(/C(=C\CN2CCCC2)c2ccccn2)cc1.Cl [Compound 1193, Triprolidine hydrochloride]	78%
